Test results as given in patent US8399033B2, “Anti-bacterial composition comprising extract from barks of Alnus pendula Matsum” (Chung-Ang University Industry Academic Cooperation …, priority 2009, dated 2013).
Values after ≈ are worked out from the molar mass of the structure shown.

Assays:
[1] = DPPH free radical scavenging activity; type: biochemical; conditions: 0.1 mM DPPH, 30 min at 37° C., absorbance 492 nm; for IC50: compounds
Protocol: Each sample (10 μL) was incubated with 0.1 mM DPPH solution (180 μL, in 99.5% ethanol), and vigorously agitated for 10 sec using a vortex mixer, followed by incubation for 30 min at 37° C. Afterwards, the absorbance was measured at 492 nm using an ELISA reader (TECAN, Sazburg, Austria). L-ascorbic acid as positive control drug was prepared and measured according to the method as described above. To determine anti-oxidative activity of each sample, anti-oxidative potential was represented as reducing power by EDA % (Electron donating ability) for DPPH. […] DPPH method is a representative measuring anti-oxidative activity (81). DPPH contains stable radical in normal condition, but its radical was removed where it contacts with a substance having anti-oxidative activity. Therefore, anti-oxidative effects could be assessed by measuring the absorbance changes of DPPH. In this regard, DPPH as a relatively stable free radical in dark-purple state was reduced by amino acids containing sulfur atom such as cystin and glutathione, L-ascorbic acid, BHA or BHT. These color changes have been used to isolate an anti-oxidative substance from a variety of natural materials (82).

DPS-1 (MRSA) = assay: MIC by liquid media dilution assay; type: cell-based; conditions: Staphylococcus aureus; DPS-1 (MRSA) clinical isolate; 24 hrs at 37° C., naked-eye observation; read-out: MIC (minimum inhibitory concentration)
Protocol: (§1) S.aureus MSSA ATCC 25923 and MRSA 33591 standard strains were purchased from Korean Culture Center of Microorganisms (KCCM), and two S. aureus clinical isolates were obtained from subjects of WonKwang University Hospital (Iksan, Jeonbuk, South Korea). Mueller Hinton Agar (MHA, Difco, USA) or Mueller Hinton Broth (MHB, Difco, USA) was used as subculture media.
(§2) Minimum Inhibitory Concentration (MIC) was carried out according to the standard of Clinical and Laboratory Standards Institute (CLSI). One strain of MRSA (Methicillin resistant staphylococcus aureus), one strain of MSSA (Methicillin susceptible staphylococcus aureus, MSSA), and two strains of MRSAs as clinical isolates obtained from plastic surgery subjects of WonKwang University Hospital, were suspended in Muller-Hinton Broth. Thereafter, the bacterial solutions were adjusted to the turbidity of 0.5 Mcfarland standard. The bacteria were prepared at a concentration of about 1×10^8 CFU/ml, followed by performing anti-bacterial experiment using a liquid media dilution assay.
(§3) The extract from a bark of Alnus pendula was serially diluted from minimal concentration (0.97 μg/ml) to maximal concentration (2 mg/ml) using DMSO (Dimethylsulfoxide) as a solvent, and then were seeded into each well of 96-well plate with a volume of 10 μl/well, followed by adding 100 μl bacterial solution and 90 μl media. After culturing the mixture for 24 hrs at 37° C. in incubator, MIC was defined as minimal concentration in which the growth of bacteria is inhibited in a naked-eye observation.

DPS-2 (MRSA) = assay: MIC by liquid media dilution assay; type: cell-based; conditions: Staphylococcus aureus; DPS-2 (MRSA) clinical isolate; 24 hrs at 37° C., naked-eye observation; read-out: MIC (minimum inhibitory concentration)
Protocol: as §1, §2, §3

[2] = system: S. aureus ATCC 25923 (MSSA); assay: MIC by liquid media dilution assay; type: cell-based; conditions: Staphylococcus aureus, 24 hrs at 37° C., naked-eye observation, read-out: MIC (minimum inhibitory concentration)
Protocol: as §1, §2, §3

[3] = system: S. aureus ATCC 33591 (MRSA); assay: MIC by liquid media dilution assay; type: cell-based; conditions: Staphylococcus aureus, 24 hrs at 37° C., naked-eye observation, read-out: MIC (minimum inhibitory concentration)
Protocol: as §1, §2, §3

| IC50 [1] | IC50 value DPPH radical scavenging activity ([1]; extract and fractions) | MIC (DPS-1 (MRSA)) | MIC (DPS-2 (MRSA)) | MIC [2] | MIC [3] | SMILES |
| --- | --- | --- | --- | --- | --- | --- |
| 16.4 ± 0.21 µM | 5.29 ± 0.05 µg/mL (≈ 30 µM) |  |  |  |  | O=C1O[C@H]([C@@H](O)CO)C(O)=C1O [Vit. C, L-ascorbic acid] |
| 22.5 ± 0.71 µM |  | 125 µg/mL (≈ 381 µM) | 62.5 µg/mL (≈ 190 µM) | 62.5 µg/mL (≈ 190 µM) | 62.5 µg/mL (≈ 190 µM) | O=C(/C=C/CCc1ccc(O)c(O)c1)CCc1ccc(O)c(O)c1 [compound 2, 1,7-bis-(3,4-dihydroxyphenyl)-4-heptene-3-one] |
